Source: PubChem BioAssay (NCI)
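How tested: cells in 96-well plates exposed to compound for 48 hours at five concentrations. At the TGI there is no net growth.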

Legend:
Assay in all cases: inhibition of tumour cell growth, NCI panel, 48 h
[1] = system: DU-145 prostate
[2] = system: HOP-62 NSCLC
[3] = system: LOX IMVI melanoma
[4] = system: UO-31 renal
[5] = system: COLO 205 colon
[6] = system: CAKI-1 renal
[7] = system: SF-539 CNS
[8] = system: RXF 393 renal
[9] = system: PC-3 prostate
[10] = system: SW-620 colon
[11] = system: UACC-257 melanoma
[12] = system: OVCAR-3 ovarian
[13] = system: EKVX NSCLC
[14] = system: SF-268 CNS
[15] = system: HCC-2998 colon
[16] = system: U251 CNS
[17] = system: A549 NSCLC
[18] = system: SNB-19 CNS
[19] = system: SK-MEL-2 melanoma
[20] = system: UACC-62 melanoma
[21] = system: MCF7 breast
[22] = system: MOLT-4 leukemia
[23] = system: NCI-H460 lung
[24] = system: SNB-75 CNS
[25] = system: HS 578T breast
[26] = system: SR leukemia
[27] = system: HL-60(TB) leukemia
[28] = system: MALME-3M melanoma
[29] = system: SK-MEL-5 melanoma
[30] = system: A498 renal
[31] = system: TK-10 renal
[32] = system: HOP-92 NSCLC
[33] = system: BT-549 breast
[34] = system: HCT-15 colon
[35] = system: SK-MEL-28 melanoma
[36] = system: K-562 leukemia
[37] = system: SK-OV-3 ovarian
[38] = system: T-47D breast
[39] = system: MDA-MB-435
[40] = system: ACHN renal
[41] = system: SN12C renal
[42] = system: NCI/ADR-RES ovarian
[43] = system: HCT-116 colon
[44] = system: 786-0 renal
[45] = system: MDA-MB-231 breast
[46] = system: CCRF-CEM leukemia
[47] = system: KM12 colon
[48] = system: OVCAR-5 ovarian
[49] = system: IGROV1 ovarian
[50] = system: SF-295 CNS
[51] = system: OVCAR-4 ovarian
[52] = system: HT29 colon
[53] = system: NCI-H226 lung
[54] = system: M14 melanoma
[55] = system: NCI-H522 lung
[56] = system: NCI-H23 lung
[57] = system: RPMI-8226 leukemia
[58] = system: OVCAR-8 ovarian
[59] = system: MDA-N

`C[N+]12CCCCC1C(CN1C(=O)c3ccccc3C1=O)CCC2` (stereo not given) was tested, and the TGI [1] was > 100 µM, the TGI [2] was > 100 µM and the TGI [3] was > 100 µM. The TGI [4] was > 100 µM, the TGI [5] was > 100 µM and the TGI [6] was > 100 µM. For the same compound, the TGI [7] was > 100 µM, the TGI [8] was > 100 µM and the TGI [9] was > 100 µM. For the same compound, the TGI [10] was > 100 µM, the TGI [11] was > 100 µM and the TGI [12] was > 100 µM. For the same compound, the TGI [13] was > 100 µM, the TGI [14] was > 100 µM and the TGI [15] was > 100 µM. The TGI [16] was > 100 µM, the TGI [17] was > 100 µM and the TGI [18] was > 100 µM. For the same compound, the TGI [19] was > 100 µM, the TGI [20] was > 100 µM and the TGI [21] was > 100 µM. The TGI [22] was > 100 µM, the TGI [23] was > 100 µM and the TGI [24] was > 100 µM. For the same compound, the TGI [25] was > 100 µM, the TGI [26] was > 100 µM and the TGI [27] was > 100 µM. The TGI [28] was > 100 µM, the TGI [29] was > 100 µM and the TGI [30] was > 100 µM. For the same compound, the TGI [31] was > 100 µM, the TGI [32] was > 100 µM and the TGI [33] was > 100 µM. The TGI [34] was > 100 µM, the TGI [35] was > 100 µM and the TGI [36] was > 100 µM. For the same compound, the TGI [37] was > 100 µM, the TGI [38] was > 100 µM and the TGI [39] was > 100 µM. For the same compound, the TGI [40] was > 100 µM, the TGI [41] was > 100 µM and the TGI [42] was > 100 µM. For the same compound, the TGI [43] was > 100 µM, the TGI [44] was > 100 µM and the TGI [45] was > 100 µM. The TGI [46] was > 100 µM, the TGI [47] was > 100 µM and the TGI [48] was > 100 µM. For the same compound, the TGI [49] was > 100 µM, the TGI [50] was > 100 µM and the TGI [51] was > 100 µM. The TGI [52] was > 100 µM, the TGI [53] was > 100 µM and the TGI [54] was > 100 µM. The TGI [55] was > 100 µM, the TGI [56] was > 100 µM and the TGI [57] was > 100 µM. For the same compound, the TGI [58] was > 100 µM and the TGI [59] was > 100 µM.

Work on `C/C(=N\NC(=S)Nc1ccc(Cl)cc1)c1nc2ncccc2[nH]1` yielded a TGI [1] of 14.1 µM, a TGI [2] of 18.1 µM and a TGI [3] of 13.1 µM. For the same compound, the TGI [4] was 5.13 µM, the TGI [5] was 17.5 µM and the TGI [6] was 33.2 µM. For the same compound, the TGI [7] was 8.27 µM, the TGI [9] was 17.4 µM and the TGI [10] was 35.5 µM. The TGI [11] was 7.75 µM, the TGI [12] was 10.5 µM and the TGI [13] was 13.1 µM. The TGI [14] was > 100 µM, the TGI [15] was 21.1 µM and the TGI [16] was 14.5 µM. The TGI [17] was > 100 µM, the TGI [18] was > 100 µM and the TGI [19] was 22.5 µM. For the same compound, the TGI [20] was 12.8 µM, the TGI [21] was 11.2 µM and the TGI [22] was 22.2 µM. The TGI [23] was 4.14 µM, the TGI [24] was 25.4 µM and the TGI [25] was 71.8 µM. For the same compound, the TGI [26] was > 100 µM, the TGI [27] was > 100 µM and the TGI [28] was 15.7 µM. The TGI [29] was 6.5 µM, the TGI [30] was 20.2 µM and the TGI [31] was 5.12 µM. It also gave a TGI [32] of 5.75 µM, a TGI [33] of 11.1 µM and a TGI [34] of 14.5 µM. It also gave a TGI [35] of 13.3 µM, a TGI [36] of 44.2 µM and a TGI [37] of 60.8 µM. The TGI [38] was 20.9 µM, the TGI [39] was 15.1 µM and the TGI [40] was 15.8 µM. For the same compound, the TGI [41] was 31.4 µM, the TGI [42] was 53.4 µM and the TGI [43] was 13 µM. For the same compound, the TGI [44] was 29.7 µM, the TGI [45] was > 100 µM and the TGI [47] was 16.4 µM. It also gave a TGI [48] of 21.3 µM, a TGI [49] of 21.5 µM and a TGI [50] of 13.5 µM. It also gave a TGI [51] of 41.4 µM, a TGI [52] of 14.7 µM and a TGI [53] of 8.25 µM. It also gave a TGI [54] of 6.54 µM, a TGI [55] of 20.2 µM and a TGI [56] of 21.5 µM. The TGI [57] was > 100 µM and the TGI [59] was 23.1 µM.
